Measurements from doi:10.1101/2021.06.01.446583v1 (biorxiv, 2021).

Legend:
[1] = system: Fp231; experiment: CNP release at […] nm, Michaelis-Menten non-linear fit; type: biochemical, uncultured Paraglaciecola sp.; details: 0.1-4 mM substrate, 2 nM enzyme
[2] = system: Fp231; experiment: fucose release by HPAEC-PAD, Michaelis-Menten non-linear fit; type: biochemical, uncultured Paraglaciecola sp.; details: 0.1-4 mM substrate, 2 nM enzyme

For `C[C@@H]1O[C@@H](Oc2ccc([N+](=O)[O-])cc2Cl)[C@@H](O)[C@H](O)[C@@H]1O` [CNP-Fuc, 2-chloro-4-nitrophenyl-α-L-fucopyranoside], the Km [1] was 140 ± 10 µM.

`CC(=O)N[C@H]1C(O)O[C@H](CO)[C@@H](O[C@@H]2O[C@@H](C)[C@@H](O)[C@@H](O)[C@@H]2O)[C@@H]1O` (stereo partly drawn) [Fuc(α1,4)GlcNAc] showed a Km [2] of 660 ± 50 µM.
